Where two headings read alike, the source gives them in different places.
Experiments:
OATP2B1 = target: T1, OATP2B1 (Homo sapiens, UniProt O94956); assay: OATP2B1-mediated pyranine uptake in A431 cells overexpressing OATP2B1; type: cell-based; details: 15 min; for IC50: A431-OATP2B1 cells
T1 construct: host or cells: A431
T1 sequence (O94956 1-709): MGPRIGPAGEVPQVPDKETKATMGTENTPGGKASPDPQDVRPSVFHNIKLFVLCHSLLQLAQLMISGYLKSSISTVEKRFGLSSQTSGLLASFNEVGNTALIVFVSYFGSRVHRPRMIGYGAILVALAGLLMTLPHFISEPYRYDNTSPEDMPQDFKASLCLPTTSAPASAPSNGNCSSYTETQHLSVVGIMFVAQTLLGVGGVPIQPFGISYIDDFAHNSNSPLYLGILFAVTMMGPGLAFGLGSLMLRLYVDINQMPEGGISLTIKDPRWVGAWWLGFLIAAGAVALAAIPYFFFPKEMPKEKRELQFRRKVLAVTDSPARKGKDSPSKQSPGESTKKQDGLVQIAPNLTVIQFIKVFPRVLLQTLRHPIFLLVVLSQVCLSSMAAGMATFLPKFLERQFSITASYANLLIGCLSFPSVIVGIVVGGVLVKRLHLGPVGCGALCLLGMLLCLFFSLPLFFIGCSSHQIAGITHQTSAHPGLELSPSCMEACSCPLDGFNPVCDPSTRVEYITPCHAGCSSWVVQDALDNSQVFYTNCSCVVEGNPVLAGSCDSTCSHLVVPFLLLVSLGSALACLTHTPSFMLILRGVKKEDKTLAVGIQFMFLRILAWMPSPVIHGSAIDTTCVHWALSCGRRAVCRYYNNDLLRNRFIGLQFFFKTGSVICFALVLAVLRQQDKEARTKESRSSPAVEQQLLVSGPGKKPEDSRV
Method: A431 cells overexpressing human OATPs, 1A2 (BC042452, HsCD00333163), 1B1 (Gene ID: AB026257), 1B3 (BC141525, HsCD00348132) or 2B1 (BC041095.1, HsCD00378878), or their mock transfected controls, were generated as previously described. Cells were cultured in Dulbecco’s Modified Eagle Medium (DMEM; Thermo Fischer Scientific, Waltham, MA, USA) supplemented with 10% fetal bovine serum, 2 mM L-glutamine, 100 units/mL penicillin and 100 µg/mL streptomycin, at 37 °C with 5% CO2.
The interaction between flavonoids and OATPs was investigated in an indirect assay employing the fluorescent dye substrates, pyranine and sulforhodamine 101 [51, 52]. Briefly, A431 cell overexpressing OATPs, 1A2, 1B1, 1B3 or 2B1, or their mock transfected controls, were seeded on 96-well plates in a density of 8x10^4 cells/well in 200 μL DMEM one day prior to the transport measurements. […] The reaction was started by the addition of 50 μL uptake buffer containing pyranine in a final concentration of 10 μM (OATP1B1) or 20 μM (OATP1B3 and OATP2B1), or 0.5 μM sulforhodamine 101 (OATP1A2). Thereafter, cells were incubated at 37°C for 15 min (OATP1B1 and OATP2B1), 10 min (OATP1A2), or 30 min (OATP1B3). The reactions were stopped by removing the supernatants, then the cells were washed three times with ice-cold PBS. Fluorescence (in 200 μL PBS/well) was determined employing an Enspire plate reader (Perkin Elmer, Waltham, MA) ex/em: 403/517 nm (pyranine) or 586/605 nm (sulforhodamine 101). OATP-dependent transport was calculated by extracting fluorescence measured in mock transfected cells. Transport activity was calculated based on the fluorescence signal in the absence (100%) of flavonoids. Experiments were repeated at least in three biological replicates. IC50 values were calculated by Hill1 fit, using the Origin Pro8.6 software ([…]).

CYP2D6 = target: T2, CYP2D6 (Homo sapiens, UniProt P10635); assay: CYP2D6-catalyzed dextromethorphan O-demethylation (CypExpress kit, HPLC); type: biochemical; details: up to 30 μM flavonoid, substrate 5 µM dextromethorphan
T2 construct: purchased Sigma-Aldrich
T2 sequence (P10635 whole entry): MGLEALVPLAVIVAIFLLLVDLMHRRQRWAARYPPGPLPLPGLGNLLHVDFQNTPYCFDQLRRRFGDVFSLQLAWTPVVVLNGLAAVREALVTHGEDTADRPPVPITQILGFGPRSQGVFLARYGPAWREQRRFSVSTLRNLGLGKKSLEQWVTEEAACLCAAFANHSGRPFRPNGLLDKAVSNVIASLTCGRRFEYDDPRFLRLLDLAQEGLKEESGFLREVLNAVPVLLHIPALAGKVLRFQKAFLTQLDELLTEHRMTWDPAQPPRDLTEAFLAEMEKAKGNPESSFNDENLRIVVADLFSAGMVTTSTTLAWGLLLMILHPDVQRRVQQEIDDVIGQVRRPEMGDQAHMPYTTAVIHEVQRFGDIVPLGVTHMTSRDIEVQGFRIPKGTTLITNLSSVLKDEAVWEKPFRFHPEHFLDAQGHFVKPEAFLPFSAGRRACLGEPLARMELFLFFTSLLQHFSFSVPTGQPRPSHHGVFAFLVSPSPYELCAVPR
Method: Inhibition of CYP2C19 [47], 3A4 [48], and 2D6 [49] by Q and its conjugates was tested based on our previously reported methods, without modifications.
S-mephenytoin and 4-hydroxymephenytoin (CYP2C19 assay), testosterone and 6β-hydroxytestosterone (CYP3A4 assay), as well as dextromethorphan and dextrorphan (CYP2D6 assay) were quantified using the previously described methods, with minor modifications.
In the CYP2D6 assay, samples were driven through a guard column (Security Guard C8, 4.0 × 3.0 mm; Phenomenex, Torrance, CA, USA) linked to an analytical column (Mediterranea Sea8 C8 150 × 4.6 mm; 5 µm; Teknokroma, Barcelona, Spain). The isocratic elution was performed with 1 mL/min flow rate at room temperature, the mobile phase contained acetonitrile and 6.9 mM sodium-acetate buffer (pH 4.0) (31:69 v/v%). Dextromethorphan and dextrorphan were detected at 280 nm.

[1] = some human subjects, 500 mg single dose of Q in certain oral carrier systems; cited from earlier work
[2] = 20 μM pyranine, read-out: IC50 for OATP2B1

concentration causing statistically significant (p < 0.01) inhibition, OATP2B1 (OATP2B1; 20 μM pyranine) [µM] | IC50 (OATP2B1; [2]) [nM] | inhibition of CYP2D6 activity (CYP2D6) | Compound | peak plasma concentrations of total Q [1] [µM] | IC50 (OATP2B1; IC50 for OATP2B1, 20 μM pyranine) [nM]
0.3 | 430 | did not affect | O=c1c(O)c(-c2ccc(O)c(OS(=O)(=O)O)c2)oc2cc(O)cc(O)c12 [Q3′S, quercetin-3′-sulfate] | – | –
3.1 | 4850 | did not affect | O=C(O)C1OC(Oc2c(-c3ccc(O)c(O)c3)oc3cc(O)cc(O)c3c2=O)C(O)C(O)C1O (stereo not shown) [Q3G, quercetin-3-glucuronide] | – | –
1.6 | 4140 | did not affect | COc1cc(-c2oc3cc(O)cc(O)c3c(=O)c2OC2OC(C(=O)O)C(O)C(O)C2O)ccc1O (stereo not shown) [I3G, isorhamnetin-3-glucuronide] | – | –

Further lines, the compound ahead of its results:

Compound | concentration causing statistically significant (p < 0.01) inhibition, OATP2B1 (OATP2B1; 20 μM pyranine) [µM] | IC50 (OATP2B1; [2]) [nM] | inhibition of CYP2D6 activity (CYP2D6) | peak plasma concentrations of total Q [1] [µM] | IC50 (OATP2B1; IC50 for OATP2B1, 20 μM pyranine) [nM]
O=c1c(O)c(-c2ccc(O)c(O)c2)oc2cc(O)cc(O)c12 [Q, quercetin] | 0.3 | 340 | did not affect | 5 to 10 | –
COc1cc(-c2oc3cc(O)cc(O)c3c(=O)c2O)ccc1O [IR, isorhamnetin] | 0.6 | – | did not affect | – | 820

Reference: paper PMC7468908 (Nutrients, 2020)
